Results on 25 substances are retold here after patent US20060084789A1, “Immunotherapeutic and immunoprphylactic reagents” (priority 2002, published 2006).

In the assay the test system is RGP-specific TCL. Description: TCL proliferation assay (3H-thymidine incorporation, stimulation index). The format is cell-based, human. Conditions: for Proliferative response, stimulation index: peptides 10 μg/ml; for T cell responses to Lol p 5 peptides: 21 TCL tested; for Lol p 1 peptides recognised by one or more TCL: 34 TCL tested, all recognised with the exception of the four named. As to the method: Generation of Short-Term RGP-Specific TCL
PBMC were cultured in 24-well plates (Costar, Mass., USA) at 2.5×10^6 cells/well with RGP extract at a concentration of 25 or 50 μg/ml in RPMI 1640 medium (Gibco BRL, NY, USA) supplemented with 2 mM GlutaMAX I (Gibco BRL), 0.05 mg/ml gentamicin (David Bull Laboratories, Mulgrave, Victoria, Australia) and 5% heat-inactivated hunan AB^+ serum (Sigma, Mo., USA) for 7 days at 37° C. in a 5% CO2 humidified incubator. At day 7, cells were washed once and restimulated in 24-well plates at 5×10^5 cells/well width 25 or 50 μg/ml of RGP extract in the presence of 5×10^5 cells/well irradiated (3000 rads) autologous PBMC as a source of antigen presenting cells (APC). At day 2 following restimulation, 10 U/ml of Lymphocult T-LF (LC; Biotest, Germany) was added as a source of IL-2 and at day 4, 1 ml of culture medium was removed and replaced with fresh medium and 10 U/ml of LC. […] In all experiments T cells were rested for 6 to 7 days after the last addition of antigen and APC before testing.
T cells (5×10^4/well) were cultured in 96-well U bottom plates with either RGP extract at concentrations ranging from 25 to 200 μg/ml, purified Lol p 1 (0.12 to 2 μg/ml) or Lol p 5 (0.1 to 10 μg/ml), or Lol p 1 or Lol p 5 peptides (10 μg/ml), or medium alone (to determine background levels of proliferation), in the presence of washed autologous irradiated (3000 rads) PBMC (5×10^4/well). […] Cultures were incubated for 3 days, pulsed for the last 16 hours with ^3H-thymidine (1 μCi/well) and harvested onto glass fibre filters. ^3H-thymidine incorporation was measured by liquid scintillation spectroscopy and the mean counts per minute (cpm) for triplicate cultures was determined. Responses were considered positive if the stimulation index (SI, cpm of antigen-stimulated T cells divided by cpm of unstimulated T cells) was ≧2.5. Where several concentrations of allergen were tested (i.e., RGP, Lol p 1 and Lol p 5), values corresponding to the highest proliferation are shown.

Setting [1] is: Subject 12 TCL, Lol p 5 series (Table 4), RGP and Lol p 5 maximal response.
Where [2] appears, read: Subject 36 TCL, Lol p 5 series (Table 4), RGP and Lol p 5 maximal response.
Setting [3] is: Subject 37 TCL, Lol p 5 series (Table 4), RGP and Lol p 5 maximal response.
Where [4] appears, read: Subject 4 TCL, Lol p 5 series (Table 4), RGP and Lol p 5 maximal response.
Setting [5] is: Subject 11 TCL, Lol p 5 series (Table 4), RGP and Lol p 5 maximal response.
The mark [6] stands for this setting: Subject 35 TCL, Lol p 5 series (Table 4), RGP and Lol p 5 maximal response.
Setting [7] is: Subject 3 TCL, Lol p 1 series (Table 3), RGP and Lol p 1 maximal response.
The mark [8] stands for this setting: Subject 2 TCL, Lol p 1 series (Table 3), RGP and Lol p 1 maximal response.
[9] abbreviates: Subject 12 TCL, Lol p 1 series (Table 3), RGP and Lol p 1 maximal response.
Where [10] appears, read: Subject 11 TCL, Lol p 1 series (Table 3), RGP and Lol p 1 maximal response.
Setting [11] is: Subject 4 TCL, Lol p 1 series (Table 3), RGP and Lol p 1 maximal response.
Where [12] appears, read: Subject 20 TCL, Lol p 5 series (Table 4), RGP and Lol p 5 maximal response.

As for “Lol p 5 peptide 73-92: synthetic 20-mer, amino acids 73-92 of Lol p 5A (SEQ ID NO:2) (LATSAAKAPGLIPKLDTAYD; Lolium perenne)”, where the note is “Subject 7 TCL, Lol p 5 series (Table 4), RGP and Lol p 5 maximal response”, the “Proliferative response, stimulation index” value was 2.6.

Turning to “VAAAANAPPADKFKIFEAAF (Lolium perenne) [Lol p 5 peptide 46-65]”, the “Proliferative response, stimulation index” value runs as follows: under setting [1], 6.5; under setting [2], 2.7; under setting [3], 6.6.

Consider “Lol p 5 peptide 100-119: synthetic 20-mer, amino acids 100-119 of Lol p 5A (SEQ ID NO:2) (GATPEAKYDAFVTALTEALR; Lolium perenne)”, for which the “Proliferative response, stimulation index” value came out at 3.8 under setting [4], 10.0 under setting [5], 7.5 under setting [1] and 2.5 under setting [6].

As for “Lol p 5 peptide 127-146: synthetic 20-mer, amino acids 127-146 of Lol p 5A (SEQ ID NO:2) (VHAVKPATEEVPAAKIPTGE; Lolium perenne)”, the “T cell responses to Lol p 5 peptides” value is listed as “nor were T cell responses detected”.

For the substance “Lol p 1 peptide 208-227: synthetic 20-mer, amino acids 208-227 of Lol p 1A (SEQ ID NO:1) (GPFTVRYTTEGGTKSEVEDV; Lolium perenne)”, the “Lol p 1 peptides recognised by one or more TCL” value (“Lol p 1 peptides recognised” for short) is “exception”. For the same substance, under setting [7], the “Proliferative response, stimulation index” value is given as 4.4.

For the substance “Lol p 1 peptide 118-137: synthetic 20-mer, amino acids 118-137 of Lol p 1A (SEQ ID NO:1) (KGEEQKLRASAGELELQFRR; Lolium perenne)”, the “Proliferative response, stimulation index” value reads like this: under setting [8], 6.2; under setting [9], 2.5.

With “Lol p 5 peptide 82-101: synthetic 20-mer, amino acids 82-101 of Lol p 5A (SEQ ID NO:2) (GLIPKLDTAYDVAYKAAEGA; Lolium perenne)”, the “T cell responses to Lol p 5 peptides” value was “nor were T cell responses detected”.

In the case of “Lol p 1 peptide 145-164: synthetic 20-mer, amino acids 145-164 of Lol p 1A (SEQ ID NO:1) (GTKPTFHVEKASNPNYLAIL; Lolium perenne)”, the “Proliferative response, stimulation index” value under setting [9] was 4.5.

Take “Lol p 1 peptide 172-191: synthetic 20-mer, amino acids 172-191 of Lol p 1A (SEQ ID NO:1) (GDVVAVDIKEKGKDKWIELK; Lolium perenne)”: where the note is “Subject 9 TCL, Lol p 1 series (Table 3), RGP and Lol p 1 maximal response”, the “Proliferative response, stimulation index” value is 2.5.

For the substance “Lol p 1 peptide 217-236: synthetic 20-mer, amino acids 217-236 of Lol p 1A (SEQ ID NO:1) (EGGTKSEVEDVIPEGWKADT; Lolium perenne)”, the “Proliferative response, stimulation index” value is listed as 3.3 under setting [7] and 4.4 under setting [10].

“FEIKCTKPESCSGEAVTVTI (Lolium perenne) [Lol p 1 peptide 73-92]”: the “Proliferative response, stimulation index” value (Subject 1 TCL, Lol p 1 series (Table 3), RGP and Lol p 1 maximal response) is 3.9; the “Proliferative response, stimulation index” value under setting [11] was 2.9; the “Proliferative response, stimulation index” value under setting [10] stood at 2.6.

Regarding “Lol p 5 peptide 136-155: synthetic 20-mer, amino acids 136-155 of Lol p 5A (SEQ ID NO:2) (EVPAAKIPTGELQIVDKIDA; Lolium perenne)”, the “T cell responses to Lol p 5 peptides” value is recorded as “nor were T cell responses detected”.

For the substance “Lol p 5 peptide 163-182: synthetic 20-mer, amino acids 163-182 of Lol p 5A (SEQ ID NO:2) (AANAAPTNDKFTVFESAFNK; Lolium perenne)”, the “Proliferative response, stimulation index” value under setting [12] is recorded as 2.5.

For “Lol p 1 peptide 55-74: synthetic 20-mer, amino acids 55-74 of Lol p 1A (SEQ ID NO:1) (TGCGNTPIFKDGRGCGSCFE; Lolium perenne)”, the “Lol p 1 peptides recognised” value is “exception”.

On to “Lol p 1 peptide 221-240: synthetic 20-mer, amino acids 221-240 of Lol p 1A (SEQ ID NO:1) (KSEVEDVIPEGWKADTSYSA; Lolium perenne)”, for which the “Proliferative response, stimulation index” value under setting [10] came to 3.3.

Take “Lol p 5 peptide 91-110: synthetic 20-mer, amino acids 91-110 of Lol p 5A (SEQ ID NO:2) (YDVAYKAAEGATPEAKYDAF; Lolium perenne)”: the “T cell responses to Lol p 5 peptides” value was “nor were T cell responses detected”.

For “Lol p 1 peptide 46-65: synthetic 20-mer, amino acids 46-65 of Lol p 1A (SEQ ID NO:1) (VDKAPFNGMTGCGNTPIFKD; Lolium perenne)”, the “Proliferative response, stimulation index” value is given as 8.4 (Subject 5 TCL, Lol p 1 series (Table 3), RGP and Lol p 1 maximal response); 4.0 under setting [9].

For “PEVKYAVFEAALTKAITAMT (Lolium perenne) [Lol p 5 peptide 217-236]”, the “Proliferative response, stimulation index” value was found to be 5.4 under setting [5]; 4.5 under setting [12]; 9.5 (Subject 27 TCL, Lol p 5 series (Table 4), RGP and Lol p 5 maximal response, † affinity purified Lol p 5); 3.5 under setting [6]; 3.5 under setting [2]; 11.0 under setting [3].

Regarding “Lol p 5 peptide 109-128: synthetic 20-mer, amino acids 109-128 of Lol p 5A (SEQ ID NO:2) (AFVTALTEALRVIAGALEVH; Lolium perenne)”, the “T cell responses to Lol p 5 peptides” value is given as “nor were T cell responses detected”.

Take “Lol p 1 peptide 163-182: synthetic 20-mer, amino acids 163-182 of Lol p 1A (SEQ ID NO:1) (ILVKYVDGDGDVVAVDIKEK; Lolium perenne)”: the “Lol p 1 peptides recognised” value is “exception”. In addition, the “Proliferative response, stimulation index” value (Subject 23 TCL, Lol p 1 series (Table 3), RGP and Lol p 1 maximal response) was 4.2.

Regarding “Lol p 1 peptide 199-218: synthetic 20-mer, amino acids 199-218 of Lol p 1A (SEQ ID NO:1) (RIDTPDKLTGPFTVRYTTEG; Lolium perenne)”, the “Lol p 1 peptides recognised” value is “exception”.

In the case of “AGELELQFRRVKCKYPDDTK (Lolium perenne) [Lol p 1 peptide 127-146]”, the “Proliferative response, stimulation index” value under setting [8] is on record as 5.8; the “Proliferative response, stimulation index” value (Subject 13 TCL, Lol p 1 series (Table 3), RGP and Lol p 1 maximal response) was 3.7; the “Proliferative response, stimulation index” value (Subject 17 TCL, Lol p 1 series (Table 3), RGP and Lol p 1 maximal response) stood at 3.0.

As for “Lol p 1 peptide 91-110: synthetic 20-mer, amino acids 91-110 of Lol p 1A (SEQ ID NO:1)”, the “Proliferative response, stimulation index” value reads like this: under setting [11], 3.6; under setting [10], 4.9.

In the case of “KFTVFESAFNKALNECTGGA (Lolium perenne) [Lol p 5 peptide 172-191]”, the “Proliferative response, stimulation index” value runs as follows: under setting [4], 2.7; under setting [1], 2.5; under setting [12], 3.0.

In the case of “Lol p 1 peptide 82-101: synthetic 20-mer, amino acids 82-101 of Lol p 1A (SEQ ID NO:1) (SCSGEAVTVTITDDNEEPIA; Lolium perenne)”, the “Proliferative response, stimulation index” value is 3.6 under setting [7] and 3.6 under setting [10].
